Reference: patent publication US10538555B2, “Macrocyclic inhibitors of the PD-1/PD-L1 and CD80(B7-1)/PD-L1 protein/protein interactions” (BRISTOL-MYERS SQUIBB COMPANY, priority 2014, dated 2020)
Where a SMILES comes first, the peptide text is derived from it. Bridges are numbered along the chain shown (N, C = ends). [ ]: non-standard residue; d: D form. ξ: configuration not given here. Trp(1-CH2COOH) = N[C@@H](Cc1cn(CC(=O)O)c2ccccc12)C(=O)O; NMeW = CN[C@@H](Cc1c[nH]c2ccccc12)C(=O)O; Hyp = O=C(O)[C@@H]1C[C@@H](O)CN1; NMeNle = CCCC[C@H](NC)C(=O)O; NMeA = CN[C@@H](C)C(=O)O; Dab = NCC[C@H](N)C(=O)O; Dap = NC[C@H](N)C(=O)O; ξP = O=C(O)C1CCCN1; Sar = CNCC(=O)O

Molecular target: T1, Human PD-L1/PD-1 (Homo sapiens, UniProt Q9NZQ7)
T1 construct: TVMV protease cleavage site (C); made in house; host or cells: HEK293T cells
Experiment: HTRF Human PD-L1/PD-1 binding assay (PD-1-Ig/PD-L1-His)
Conditions: PD-L1-His 10 nM, PD-1-Ig 20 nM; class symbol; read-out: HTRF Human PD-L1/PD-1 Binding Assay IC50 Range
Summary of the method: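 Step 1: compound with PD-L1-His (10 nM final), 15 min. Step 2: PD-1-Ig (20 nM final), 15 min. Step 3: Eu-cryptate anti-Ig (1 nM) plus APC anti-His (20 nM), 30 min equilibration. Signal taken as 665 nm/620 nm ratio.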

T1 sequence (Q9NZQ7 with tags, fused parts or gaps): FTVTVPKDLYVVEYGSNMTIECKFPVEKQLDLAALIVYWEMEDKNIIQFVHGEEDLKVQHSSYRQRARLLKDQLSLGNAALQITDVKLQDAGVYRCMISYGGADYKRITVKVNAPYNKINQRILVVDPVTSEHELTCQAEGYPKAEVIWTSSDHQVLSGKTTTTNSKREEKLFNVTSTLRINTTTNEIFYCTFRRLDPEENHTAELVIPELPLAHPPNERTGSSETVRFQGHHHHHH

CCCC[C@H]1C(=O)N[C@@H](CC(C)C)C(=O)N[C@H](C(=O)NCC(N)=O)CSCC(=O)N[C@@H](Cc2ccc(O)cc2)C(=O)N(C)[C@@H](C)C(=O)N[C@@H](CC(N)=O)C(=O)N2CCCC2C(=O)N[C@@H](CN)C(=O)N[C@@H](CC(C)C)C(=O)N2C[C@H](O)C[C@H]2C(=O)N[C@@H](Cc2c[nH]c3ccccc23)C(=O)N[C@@H](CCN)C(=O)N(C)[C@@H](Cc2c[nH]c3ccccc23)C(=O)N(C)[C@@H](CCCC)C(=O)N1C (stereo partly drawn) [Example 5265] ({CH2CO}-Y[NMeA]N[ξP][Dap]L[Hyp]W[Dab][NMeW][NMeNle][NMeNle]LCG-NH2; thioether N-14)
IC50: 10 to 99.9 nM

CCCC[C@H]1C(=O)N(C)[C@@H](CCCC)C(=O)N[C@@H](CC(C)C)C(=O)N[C@H](C(=O)NCC(N)=O)CSCC(=O)N[C@@H](Cc2ccc(O)cc2)C(=O)N(C)[C@@H](C)C(=O)N[C@@H](CC(N)=O)C(=O)N2CCC[C@H]2C(=O)N[C@@H](CC(N)=O)C(=O)N[C@@H](CCC(N)=O)C(=O)N2C[C@H](O)C[C@H]2C(=O)N[C@@H](Cc2c[nH]c3ccccc23)C(=O)N[C@@H](CCN)C(=O)N[C@@H](Cc2cn(CC(=O)O)c3ccccc23)C(=O)N1C [Example 6118] ({CH2CO}-Y[NMeA]NPNQ[Hyp]W[Dab][Trp(1-CH2COOH)][NMeNle][NMeNle]LCG-NH2; thioether N-14)
IC50: 1 to 9.9 nM

CCCC[C@H]1C(=O)N(C)[C@@H](CCCC)C(=O)N[C@@H](CCN)C(=O)N[C@H](C(=O)NCC(N)=O)CSCC(=O)N[C@@H](Cc2ccc(O)cc2)C(=O)N(C)[C@@H](C)C(=O)N[C@@H](CC(N)=O)C(=O)N2CCC[C@H]2C(=O)N[C@@H](CN)C(=O)N[C@@H](CCC(N)=O)C(=O)N2C[C@H](O)C[C@H]2C(=O)N[C@@H](Cc2c[nH]c3ccccc23)C(=O)N[C@@H](CO)C(=O)N[C@@H](Cc2cn(CC(=O)O)c3ccccc23)C(=O)N1C [Example 6119] ({CH2CO}-Y[NMeA]NP[Dap]Q[Hyp]WS[Trp(1-CH2COOH)][NMeNle][NMeNle][Dab]CG-NH2; thioether N-14)
IC50: 1 to 9.9 nM

CCCC[C@H]1C(=O)N(C)[C@@H](CCCC)C(=O)N[C@@H](CCC(=O)O)C(=O)N[C@H](C(=O)NCC(N)=O)CSCC(=O)N[C@@H](Cc2ccc(O)cc2)C(=O)N(C)[C@@H](C)C(=O)N[C@@H](CC(N)=O)C(=O)N2CCC[C@H]2C(=O)N[C@@H](Cc2cnc[nH]2)C(=O)N[C@@H](CCC(=O)O)C(=O)N2C[C@H](O)C[C@H]2C(=O)N[C@@H](Cc2c[nH]c3ccccc23)C(=O)N[C@@H](CCN)C(=O)N[C@@H](Cc2cn(CC(=O)O)c3ccccc23)C(=O)N1C [Example 6134] ({CH2CO}-Y[NMeA]NPHE[Hyp]W[Dab][Trp(1-CH2COOH)][NMeNle][NMeNle]ECG-NH2; thioether N-14)
IC50: 1 to 9.9 nM

CCCC[C@H]1C(=O)N(C)[C@@H](CCCC)C(=O)N[C@@H](CCC(=O)O)C(=O)N[C@H](C(=O)NCC(N)=O)CSCC(=O)N[C@@H](Cc2ccc(O)cc2)C(=O)N(C)[C@@H](C)C(=O)N[C@@H](CC(=O)O)C(=O)N2CCC[C@H]2C(=O)N[C@@H](CO)C(=O)N[C@@H](CC(C)C)C(=O)N2C[C@H](O)C[C@H]2C(=O)N[C@@H](Cc2c[nH]c3ccccc23)C(=O)N[C@@H](CCN)C(=O)N[C@@H](Cc2cn(CC(=O)O)c3ccccc23)C(=O)N1C [Example 6135] ({CH2CO}-Y[NMeA]DPSL[Hyp]W[Dab][Trp(1-CH2COOH)][NMeNle][NMeNle]ECG-NH2; thioether N-14)
IC50: 1 to 9.9 nM

CCCC[C@H]1C(=O)N(C)[C@@H](CCCC)C(=O)N[C@@H](CCC(=O)O)C(=O)N[C@H](C(=O)NCC(N)=O)CSCC(=O)N[C@@H](Cc2ccc(O)cc2)C(=O)N(C)[C@@H](C)C(=O)N[C@@H](CC(N)=O)C(=O)N2CCC[C@H]2C(=O)N[C@@H](CO)C(=O)N[C@@H](CC(C)C)C(=O)N2C[C@H](O)C[C@H]2C(=O)N[C@@H](Cc2c[nH]c3ccccc23)C(=O)N[C@@H](CCN)C(=O)N[C@@H](Cc2cn(CC(=O)O)c3ccccc23)C(=O)N1C [Example 6136] ({CH2CO}-Y[NMeA]NPSL[Hyp]W[Dab][Trp(1-CH2COOH)][NMeNle][NMeNle]ECG-NH2; thioether N-14)
IC50: 10 to 99.9 nM

CCCC[C@H]1C(=O)N(C)[C@@H](CCCC)C(=O)N[C@@H](CCC(=O)O)C(=O)N[C@H](C(=O)NCC(N)=O)CSCC(=O)N[C@@H](Cc2ccc(O)cc2)C(=O)N(C)[C@@H](C)C(=O)N[C@@H](CC(N)=O)C(=O)N2CCC[C@H]2C(=O)N[C@@H](CN)C(=O)N[C@@H](CC(C)C)C(=O)N2C[C@H](O)C[C@H]2C(=O)N[C@@H](Cc2c[nH]c3ccccc23)C(=O)N[C@@H](CO)C(=O)N[C@@H](Cc2cn(CC(=O)O)c3ccccc23)C(=O)N1C [Example 6137] ({CH2CO}-Y[NMeA]NP[Dap]L[Hyp]WS[Trp(1-CH2COOH)][NMeNle][NMeNle]ECG-NH2; thioether N-14)
IC50: 10 to 99.9 nM

CCCC[C@H]1C(=O)N(C)[C@@H](CCCC)C(=O)N[C@@H](CN)C(=O)N[C@H](C(N)=O)CSCC(=O)N[C@@H](Cc2ccc(O)cc2)C(=O)N(C)[C@@H](C)C(=O)N[C@@H](CC(N)=O)C(=O)N2CCC[C@H]2C(=O)N[C@@H](CN)C(=O)N[C@@H](CC(C)C)C(=O)N2C[C@H](O)C[C@H]2C(=O)N[C@@H](Cc2c[nH]c3ccccc23)C(=O)N[C@@H](CO)C(=O)N[C@@H](Cc2cn(CC(=O)O)c3ccccc23)C(=O)N1C [Example 6140]
IC50: 1 to 9.9 nM

CCCC[C@H]1C(=O)N(C)[C@@H](CCCC)C(=O)N[C@@H](CC(C)C)C(=O)N[C@H](C(=O)NCC(N)=O)CSCC(=O)N[C@@H](Cc2ccc(O)cc2)C(=O)N(C)[C@@H](C)C(=O)N[C@@H](CC(=O)O)C(=O)N2CCC[C@H]2C(=O)N[C@@H](Cc2cnc[nH]2)C(=O)N[C@@H](CCC(=O)O)C(=O)N2C[C@H](O)C[C@H]2C(=O)N[C@@H](Cc2c[nH]c3ccccc23)C(=O)N[C@@H](CCN)C(=O)N[C@@H](Cc2cn(CC(=O)O)c3ccccc23)C(=O)N1C [Example 6141] ({CH2CO}-Y[NMeA]DPHE[Hyp]W[Dab][Trp(1-CH2COOH)][NMeNle][NMeNle]LCG-NH2; thioether N-14)
IC50: 1 to 9.9 nM

CCCC[C@H]1C(=O)N(C)[C@@H](CCCC)C(=O)N[C@@H](CC(C)C)C(=O)N[C@H](C(=O)NCC(N)=O)CSCC(=O)N[C@@H](Cc2ccc(O)cc2)C(=O)N(C)[C@@H](C)C(=O)N[C@@H](CC(N)=O)C(=O)N2CCC[C@H]2C(=O)N[C@@H](CN)C(=O)N[C@@H](CCC(=O)O)C(=O)N2C[C@H](O)C[C@H]2C(=O)N[C@@H](Cc2c[nH]c3ccccc23)C(=O)N[C@@H](CCN)C(=O)N[C@@H](Cc2cn(CC(=O)O)c3ccccc23)C(=O)N1C [Example 6146] ({CH2CO}-Y[NMeA]NP[Dap]E[Hyp]W[Dab][Trp(1-CH2COOH)][NMeNle][NMeNle]LCG-NH2; thioether N-14)
IC50: 1 to 9.9 nM

CCCC[C@H]1C(=O)N(C)[C@@H](CCCC)C(=O)N[C@@H](CC(C)C)C(=O)N[C@H](C(=O)NCC(N)=O)CSCC(=O)N[C@@H](Cc2ccc(O)cc2)C(=O)N(C)[C@@H](C)C(=O)N[C@@H](CC(=O)O)C(=O)N2CCC[C@H]2C(=O)N[C@@H](Cc2cnc[nH]2)C(=O)N[C@@H](CCCCN)C(=O)N2C[C@H](O)C[C@H]2C(=O)N[C@@H](Cc2c[nH]c3ccccc23)C(=O)N[C@@H](CCCCN)C(=O)N[C@@H](Cc2cn(CC(=O)O)c3ccccc23)C(=O)N1C [Example 6156] ({CH2CO}-Y[NMeA]DPHK[Hyp]WK[Trp(1-CH2COOH)][NMeNle][NMeNle]LCG-NH2; thioether N-14)
IC50: 1 to 9.9 nM

CCCC[C@H]1C(=O)N(C)[C@@H](CCCC)C(=O)N[C@@H](C)C(=O)N[C@H](C(=O)NCC(N)=O)CSCC(=O)N[C@@H](Cc2ccc(O)cc2)C(=O)N(C)[C@@H](C)C(=O)N[C@@H](CC(=O)O)C(=O)N2CCC[C@H]2C(=O)N[C@@H](Cc2cnc[nH]2)C(=O)N[C@@H](CCC(N)=O)C(=O)N2C[C@H](O)C[C@H]2C(=O)N[C@@H](Cc2c[nH]c3ccccc23)C(=O)N[C@@H](CCN)C(=O)N[C@@H](Cc2cn(CC(=O)O)c3ccccc23)C(=O)N1C [Example 6158] ({CH2CO}-Y[NMeA]DPHQ[Hyp]W[Dab][Trp(1-CH2COOH)][NMeNle][NMeNle]ACG-NH2; thioether N-14)
IC50: 1 to 9.9 nM

CCCC[C@H]1C(=O)N(C)[C@@H](CCCC)C(=O)N[C@@H](CC(C)C)C(=O)N[C@H](C(=O)NCC(N)=O)CSCC(=O)N[C@@H](Cc2ccc(O)cc2)C(=O)N(C)[C@@H](C)C(=O)N[C@@H](CC(N)=O)C(=O)N2CCCC2C(=O)N[C@@H](Cc2cnc[nH]2)C(=O)N[C@@H](CCC(N)=O)C(=O)N[C@H](C)C(=O)N[C@@H](Cc2c[nH]c3ccccc23)C(=O)N[C@@H](CO)C(=O)N[C@@H](Cc2c[nH]c3ccccc23)C(=O)N1C (stereo partly drawn) [Example 6168] ({CH2CO}-Y[NMeA]N[ξP]HQ[dA]WSW[NMeNle][NMeNle]LCG-NH2; thioether N-14)
IC50: 10 to 99.9 nM

CCCC[C@H]1C(=O)N(C)[C@@H](CCCC)C(=O)N[C@@H](CC(C)C)C(=O)N[C@H](C(=O)NCC(N)=O)CSCC(=O)N[C@@H](Cc2ccc(O)cc2)C(=O)N(C)[C@@H](C)C(=O)N[C@@H](CC(N)=O)C(=O)N2CCC[C@H]2C(=O)N[C@@H](CN)C(=O)N[C@@H](CC(C)C)C(=O)N(C)CC(=O)N[C@@H](Cc2c[nH]c3ccccc23)C(=O)N[C@@H](CCN)C(=O)N[C@@H](Cc2cn(CC(=O)O)c3ccccc23)C(=O)N1C [Example 6170] ({CH2CO}-Y[NMeA]NP[Dap]L[Sar]W[Dab][Trp(1-CH2COOH)][NMeNle][NMeNle]LCG-NH2; thioether N-14)
IC50: 1 to 9.9 nM

CCCC[C@H]1C(=O)N(C)[C@@H](CCCC)C(=O)N[C@@H](CCC(=O)O)C(=O)N[C@H](C(=O)NCC(N)=O)CSCC(=O)N[C@@H](Cc2ccc(O)cc2)C(=O)N(C)[C@@H](C)C(=O)N[C@@H](CC(=O)O)C(=O)N2CCCC2C(=O)N[C@@H](CN)C(=O)N[C@@H](CCC(=O)O)C(=O)N2C[C@H](O)C[C@H]2C(=O)N[C@@H](Cc2c[nH]c3ccccc23)C(=O)N[C@@H](CCN)C(=O)N[C@@H](Cc2cn(CC(=O)O)c3ccccc23)C(=O)N1C (stereo partly drawn) [Example 6172] ({CH2CO}-Y[NMeA]D[ξP][Dap]E[Hyp]W[Dab][Trp(1-CH2COOH)][NMeNle][NMeNle]ECG-NH2; thioether N-14)
IC50: 1 to 9.9 nM
